According to US8569344B2, “N-piperidinyl acetamide derivatives as calcium channel blockers” (Zalicus Pharmaceuticals Ltd., priority 2008, dated 2013):

How the values were obtained:
[1] = molecular target: T1, human α1G T-type channels (Homo sapiens, UniProt O43497); assay: T-type calcium channel block, whole cell patch clamp in HEK cells (α1G); format: cell-based; settings: HEK cells, patch clamp, mainly non-inactivated protocol; values above 10 μM shown as 10 μM, below 0.30 μM shown as 0.30 μM; read-out: T-type Calcium Channel Block α1G IC50
T1 construct: expressed in transfected cells; host or cells: HEK 293

[2] = molecular target: T2, human α1H T-type channels (Homo sapiens, UniProt O95180); assay: T-type calcium channel block, whole cell patch clamp in HEK cells (α1H); format: cell-based; settings: HEK cells, patch clamp, mainly non-inactivated protocol; values above 10 μM shown as 10 μM; read-out: T-type Calcium Channel Block α1H IC50
T2 construct: expressed in transfected cells; host or cells: HEK 293
Method: T-type calcium channel blocking activity was assayed in human embryonic kidney cells, HEK 293, stably transfected with the T-type calcium channel subunits. Briefly, cells were cultured in Dulbecco's modified eagle medium (DMEM) supplemented with 10% fetal bovine serum, 200 U/ml penicillin and 0.2 mg/ml streptomycin at 37° C. with 5% CO2. At 85% confluency cells were split with 0.25% trypsin/1 mM EDTA and plated at 10% confluency on glass coverslips. […] Fresh DMEM was supplied and the cells transferred to 28° C./5% CO2. Cells were incubated for 1 to 2 days prior to whole cell recording.
Standard patch-clamp techniques were employed to identify blockers of T-type currents. Briefly, previously described HEK cell lines stably expressing human α1G, α1H and α1I T-type channels were used for all the recordings (passage #: 4-20, 37° C., 5% CO2). Whole cell patch clamp experiments were performed using an Axopatch 200B amplifier (Axon Instruments, Burlingame, Calif.) linked to a personal computer equipped with pCLAMP software. Data were analyzed using Clampfit (Axon Instruments) and SigmaPlot 4.0 (Jandel Scientific). To obtain T-type currents, plastic dishes containing semi-confluent cells were positioned on the stage of a ZEISS AXIOVERT S100 microscope after replacing the culture medium with external solution (see below). Whole-cell patches were obtained using pipettes (borosilicate glass with filament, O.D.: 1.5 mm, I.D.: 0.86 mm, 10 cm length), fabricated on a SUTTER P-97 puller with resistance values of ˜5 MΩ (see below for internal solution).
In the non-inactivating protocol, the holding potential is set at −110 mV and with a pre-pulse at −100 mV for 1 second prior to the test pulse at −40 mV for 50 ms.
Test compounds were dissolved in external solution, 0.1-0.01% DMSO. After ˜10 min rest, they were applied by gravity close to the cell using a WPI microfil tubing. The “non-inactivated” pre-pulse was used to examine the resting block of a compound. The “inactivated” protocol was employed to study voltage-dependent block. […] Values are shown in μM and values above 10 μM are simply represented as 10 μM.

T1 sequence (O43497 whole entry): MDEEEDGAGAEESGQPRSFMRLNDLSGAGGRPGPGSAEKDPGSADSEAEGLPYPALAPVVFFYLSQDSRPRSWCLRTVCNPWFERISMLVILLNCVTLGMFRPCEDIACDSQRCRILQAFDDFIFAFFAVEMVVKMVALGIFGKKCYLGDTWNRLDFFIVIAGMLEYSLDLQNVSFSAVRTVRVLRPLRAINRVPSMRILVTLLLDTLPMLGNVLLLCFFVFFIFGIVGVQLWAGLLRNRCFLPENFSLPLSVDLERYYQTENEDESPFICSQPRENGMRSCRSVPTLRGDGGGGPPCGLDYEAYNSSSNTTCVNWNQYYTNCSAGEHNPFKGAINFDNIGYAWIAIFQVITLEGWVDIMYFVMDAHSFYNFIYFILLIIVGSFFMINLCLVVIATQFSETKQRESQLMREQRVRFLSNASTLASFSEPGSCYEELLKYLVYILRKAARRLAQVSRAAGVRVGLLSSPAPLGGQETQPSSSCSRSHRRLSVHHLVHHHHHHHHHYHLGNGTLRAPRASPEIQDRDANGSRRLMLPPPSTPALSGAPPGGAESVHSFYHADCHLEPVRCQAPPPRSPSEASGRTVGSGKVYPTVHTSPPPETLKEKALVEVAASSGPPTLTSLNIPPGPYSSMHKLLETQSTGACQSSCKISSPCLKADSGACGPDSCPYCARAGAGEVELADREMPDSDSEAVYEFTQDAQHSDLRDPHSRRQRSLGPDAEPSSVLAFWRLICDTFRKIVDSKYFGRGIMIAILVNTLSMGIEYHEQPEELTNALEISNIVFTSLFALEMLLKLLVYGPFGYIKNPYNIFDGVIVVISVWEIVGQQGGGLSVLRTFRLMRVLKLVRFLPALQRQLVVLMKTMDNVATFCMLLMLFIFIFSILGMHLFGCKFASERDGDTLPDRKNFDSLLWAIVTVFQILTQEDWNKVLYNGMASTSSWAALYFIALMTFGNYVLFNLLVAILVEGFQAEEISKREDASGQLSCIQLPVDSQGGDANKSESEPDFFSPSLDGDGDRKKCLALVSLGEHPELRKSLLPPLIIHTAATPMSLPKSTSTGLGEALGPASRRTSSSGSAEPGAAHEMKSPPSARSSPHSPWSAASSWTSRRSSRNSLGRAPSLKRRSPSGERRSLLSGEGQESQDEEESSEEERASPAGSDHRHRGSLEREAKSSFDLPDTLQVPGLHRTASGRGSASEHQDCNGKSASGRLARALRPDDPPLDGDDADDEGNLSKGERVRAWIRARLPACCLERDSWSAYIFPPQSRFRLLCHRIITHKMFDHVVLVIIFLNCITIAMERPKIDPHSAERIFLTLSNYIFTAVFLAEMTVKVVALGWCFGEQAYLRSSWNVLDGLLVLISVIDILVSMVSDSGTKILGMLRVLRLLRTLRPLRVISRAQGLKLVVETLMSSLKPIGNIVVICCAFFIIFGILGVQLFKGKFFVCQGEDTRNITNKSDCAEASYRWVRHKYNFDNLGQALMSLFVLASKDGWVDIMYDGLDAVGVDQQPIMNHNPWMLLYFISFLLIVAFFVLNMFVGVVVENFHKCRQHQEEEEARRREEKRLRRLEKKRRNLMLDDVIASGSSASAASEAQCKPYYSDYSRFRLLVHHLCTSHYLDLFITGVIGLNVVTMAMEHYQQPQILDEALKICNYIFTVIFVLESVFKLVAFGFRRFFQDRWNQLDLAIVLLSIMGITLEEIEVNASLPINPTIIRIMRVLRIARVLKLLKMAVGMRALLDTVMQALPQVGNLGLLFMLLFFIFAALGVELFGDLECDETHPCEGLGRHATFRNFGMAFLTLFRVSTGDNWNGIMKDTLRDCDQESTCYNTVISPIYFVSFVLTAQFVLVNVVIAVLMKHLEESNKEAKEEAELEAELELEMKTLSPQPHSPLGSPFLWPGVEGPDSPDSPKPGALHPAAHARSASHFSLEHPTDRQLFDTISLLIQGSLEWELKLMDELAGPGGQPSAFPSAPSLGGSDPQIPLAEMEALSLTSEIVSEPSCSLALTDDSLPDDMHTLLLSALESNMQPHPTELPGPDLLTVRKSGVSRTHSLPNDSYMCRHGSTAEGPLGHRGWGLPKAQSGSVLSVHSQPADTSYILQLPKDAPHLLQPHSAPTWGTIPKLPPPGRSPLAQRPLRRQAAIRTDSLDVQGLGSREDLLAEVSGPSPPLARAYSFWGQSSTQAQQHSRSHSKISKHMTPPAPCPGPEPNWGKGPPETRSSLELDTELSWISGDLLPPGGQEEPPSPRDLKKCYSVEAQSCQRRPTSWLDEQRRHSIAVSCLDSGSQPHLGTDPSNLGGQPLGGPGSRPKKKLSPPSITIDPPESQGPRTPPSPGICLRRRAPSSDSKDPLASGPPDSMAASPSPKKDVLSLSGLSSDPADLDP
T2 sequence (O95180 whole entry): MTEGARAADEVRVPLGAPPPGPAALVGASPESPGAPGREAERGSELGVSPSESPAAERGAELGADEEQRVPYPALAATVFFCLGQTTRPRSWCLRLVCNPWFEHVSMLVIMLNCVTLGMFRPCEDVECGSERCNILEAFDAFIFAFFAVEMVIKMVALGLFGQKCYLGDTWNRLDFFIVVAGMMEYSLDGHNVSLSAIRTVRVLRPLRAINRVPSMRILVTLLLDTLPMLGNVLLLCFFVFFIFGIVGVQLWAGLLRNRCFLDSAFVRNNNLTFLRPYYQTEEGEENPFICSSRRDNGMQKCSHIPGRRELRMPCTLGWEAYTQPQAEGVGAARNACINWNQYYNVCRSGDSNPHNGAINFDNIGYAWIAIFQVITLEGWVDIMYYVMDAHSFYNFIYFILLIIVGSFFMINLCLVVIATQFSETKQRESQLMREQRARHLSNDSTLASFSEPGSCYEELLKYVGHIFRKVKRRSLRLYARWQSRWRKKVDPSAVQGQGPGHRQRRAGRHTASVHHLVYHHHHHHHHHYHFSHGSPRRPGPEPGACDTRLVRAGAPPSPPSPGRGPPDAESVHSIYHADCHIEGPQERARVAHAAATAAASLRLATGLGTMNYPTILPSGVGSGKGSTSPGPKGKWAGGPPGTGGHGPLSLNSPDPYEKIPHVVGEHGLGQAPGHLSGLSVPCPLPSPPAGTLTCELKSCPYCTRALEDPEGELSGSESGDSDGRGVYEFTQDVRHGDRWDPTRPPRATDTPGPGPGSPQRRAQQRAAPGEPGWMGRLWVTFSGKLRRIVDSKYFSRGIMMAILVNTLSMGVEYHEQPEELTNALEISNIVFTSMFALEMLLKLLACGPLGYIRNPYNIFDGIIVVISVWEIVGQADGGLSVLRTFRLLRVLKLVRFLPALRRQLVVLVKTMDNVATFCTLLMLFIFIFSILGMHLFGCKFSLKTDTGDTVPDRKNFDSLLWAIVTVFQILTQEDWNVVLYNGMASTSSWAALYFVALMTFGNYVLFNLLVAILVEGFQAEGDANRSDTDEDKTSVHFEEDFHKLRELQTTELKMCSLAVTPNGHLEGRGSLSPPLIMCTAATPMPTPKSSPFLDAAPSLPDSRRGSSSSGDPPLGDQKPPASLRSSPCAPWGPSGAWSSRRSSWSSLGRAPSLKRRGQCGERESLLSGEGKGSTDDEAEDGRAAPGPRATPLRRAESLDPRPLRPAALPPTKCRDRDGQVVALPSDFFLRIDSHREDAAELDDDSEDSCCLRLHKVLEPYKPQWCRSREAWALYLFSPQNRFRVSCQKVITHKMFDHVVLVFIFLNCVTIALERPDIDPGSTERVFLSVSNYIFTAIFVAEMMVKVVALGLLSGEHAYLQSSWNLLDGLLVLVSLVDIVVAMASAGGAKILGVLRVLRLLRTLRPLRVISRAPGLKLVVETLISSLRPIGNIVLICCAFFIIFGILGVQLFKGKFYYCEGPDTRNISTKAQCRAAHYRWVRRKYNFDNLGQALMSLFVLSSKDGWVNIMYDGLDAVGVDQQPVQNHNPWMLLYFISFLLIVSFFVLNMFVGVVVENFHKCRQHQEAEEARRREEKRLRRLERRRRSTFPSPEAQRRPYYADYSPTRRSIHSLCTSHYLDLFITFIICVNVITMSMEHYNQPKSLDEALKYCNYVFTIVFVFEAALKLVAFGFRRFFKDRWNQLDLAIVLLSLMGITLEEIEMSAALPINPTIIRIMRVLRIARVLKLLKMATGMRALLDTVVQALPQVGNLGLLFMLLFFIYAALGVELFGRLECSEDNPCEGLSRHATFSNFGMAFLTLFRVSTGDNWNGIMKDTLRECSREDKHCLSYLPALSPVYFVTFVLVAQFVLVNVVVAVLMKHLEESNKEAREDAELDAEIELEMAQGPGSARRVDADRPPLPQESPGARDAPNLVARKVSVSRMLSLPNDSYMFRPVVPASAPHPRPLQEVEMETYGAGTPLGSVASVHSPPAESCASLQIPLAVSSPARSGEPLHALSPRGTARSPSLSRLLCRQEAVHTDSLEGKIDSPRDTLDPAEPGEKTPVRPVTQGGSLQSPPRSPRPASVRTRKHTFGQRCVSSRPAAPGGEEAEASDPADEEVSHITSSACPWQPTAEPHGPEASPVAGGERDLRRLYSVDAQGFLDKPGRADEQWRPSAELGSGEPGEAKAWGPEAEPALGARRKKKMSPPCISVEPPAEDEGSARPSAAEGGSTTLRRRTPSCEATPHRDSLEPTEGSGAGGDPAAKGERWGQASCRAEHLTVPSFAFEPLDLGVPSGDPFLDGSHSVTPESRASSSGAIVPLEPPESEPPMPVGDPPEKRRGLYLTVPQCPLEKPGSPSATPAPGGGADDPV

Row | Structure (SMILES) | IC50 [1] [nM] | IC50 [2] [nM]
1 | O=C(NCC1CCN(CCNS(=O)(=O)C2CC2)CC1)c1cc(C(F)(F)F)cc(C(F)(F)F)c1 [Compound 19, N-((1-(2-(cyclopropanesulfonamido)ethyl)piperidin-4-yl)methyl)-3,5-bis(trifluoromethyl)benzamide] | 1740 | 740
2 | CC(C)S(=O)(=O)NCCN1CCC(CNC(=O)c2cc(C(F)(F)F)cc(C(F)(F)F)c2)CC1 [Compound 20, N-((1-(2-(1-methylethylsulfonamido)ethyl)piperidin-4-yl)methyl)-3,5-bis(trifluoromethyl)benzamide] | < 300 | 400
3 | O=C(NCC1CCN(CCNS(=O)(=O)C(F)(F)F)CC1)c1cc(C(F)(F)F)cc(C(F)(F)F)c1 [Compound 21, 3,5-bis(trifluoromethyl)-N-((1-(2-(trifluoromethylsulfonamido)ethyl)piperidin-4-yl)methyl)benzamide] | 3660 | 590
4 | CC(C)COC(=O)NCCN1CCC(CNC(=O)c2cc(C(F)(F)F)cc(C(F)(F)F)c2)CC1 [Compound 37, isobutyl 2-(4-((3,5-bis(trifluoromethyl)benzamido)methyl)piperidin-1-yl)ethylcarbamate] | < 300 | 170
5 | CC(C)(C)OC(=O)NCCN1CCC(CNC(=O)c2cccc(C(F)(F)F)c2)CC1 [Compound 39, tert-butyl 2-(4-((3-(trifluoromethyl)benzamido)methyl)piperidin-1-yl)ethylcarbamate] | 1310 | 1170
6 | O=C(NCC1CCN(C2CN(C(=O)c3cc(F)cc(C(F)(F)F)c3)C2)CC1)c1cc(F)cc(Cl)c1 [Compound 604, 3-chloro-5-fluoro-N-((1-(1-(3-fluoro-5-(trifluoromethyl)benzoyl)azetidin-3-yl)piperidin-4-yl)methyl)benzamide] | – | 1900
7 | O=C(NCC1CCN(C2CN(C(=O)c3cc(F)cc(Cl)c3)C2)CC1)c1cc(F)cc(Cl)c1 [Compound 605, 3-chloro-N-((1-(1-(3-chloro-5-fluorobenzoyl)azetidin-3-yl)piperidin-4-yl)methyl)-5-fluorobenzamide] | – | 3580
8 | O=C(NCC1CCN(C2CN(C(=O)c3cccc(Cl)c3)C2)CC1)c1cc(F)cc(Cl)c1 [Compound 606, 3-chloro-N-((1-(1-(3-chlorobenzoyl)azetidin-3-yl)piperidin-4-yl)methyl)-5-fluorobenzamide] | – | 3300
9 | CC(C)(C)C(=O)N1CC(N2CCC(CNC(=O)c3cc(F)cc(Cl)c3)CC2)C1 [Compound 607, 3-chloro-5-fluoro-N-((1-(1-pivaloyl-azetidin-3-yl)piperidin-4-yl)methyl) benzamide] | – | 3170
10 | CC1(C(=O)N2CC(N3CCC(CNC(=O)c4cc(F)cc(Cl)c4)CC3)C2)CC1 [Compound 608, 3-chloro-5-fluoro-N-((1-(1-(1-methylcyclopropanecarbonyl)azetidin-3-yl)piperidin-4-yl)methyl)benzamide] | – | > 10000
11 | O=C(NCC1CCN(C2CN(C(=O)C3(C(F)(F)F)CC3)C2)CC1)c1cc(F)cc(Cl)c1 [Compound 609, 3-chloro-5-fluoro-N-((1-(1-(1-(trifluoromethyl)cyclopropanecarbonyl)azetidin-3-yl)piperidin-4-yl)methyl) benzamide] | – | 3050
12 | O=C(NCC1CCN(C2CN(C(=O)C3(C(F)(F)F)CCC3)C2)CC1)c1cc(F)cc(Cl)c1 [Compound 610, 3-chloro-5-fluoro-N-((1-(1-(1-(trifluoromethyl)cyclobutanecarbonyl)azetidin-3-yl)piperidin-4-yl)methyl) benzamide] | – | 770
13 | CC1(C(=O)N2CC(N3CCC(CNC(=O)c4cc(F)cc(Cl)c4)CC3)C2)CCC(F)(F)CC1 [Compound 611, 3-chloro-N-((1-(1-(4,4-difluoro-1-methylcyclohexanecarbonyl)azetidin-3-yl)piperidin-4-yl)methyl)-5-fluorobenzamide] | – | 290
14 | CC(C)(C)NC(=O)N1CC(N2CCC(CNC(=O)c3cc(F)cc(Cl)c3)CC2)C1 [Compound 612, N-tert-butyl-3-(4-((3-chloro-5-fluorobenzamido)methyl)piperidin-1-yl)azetidin-1-carboxamide] | – | > 10000

Further lines, results first:

Row | IC50 [1] [nM] | IC50 [2] [nM] | Structure (SMILES)
15 | 1010 | 370 | CS(=O)(=O)NC1(CN2CCC(CNC(=O)c3cc(C(F)(F)F)cc(C(F)(F)F)c3)CC2)CCCC1 [Compound 1, N-((1-((1-(methylsulfonamido)cyclopentyl)methyl)piperidin-4-yl)methyl)-3,5-bis(trifluoromethyl)benzamide]
16 | < 300 | 540 | O=C(NCC1CCN(CC2(NS(=O)(=O)C3CC3)CCCC2)CC1)c1cc(C(F)(F)F)cc(C(F)(F)F)c1 [Compound 2, N-((1-((1-(cyclopropanesulfonamido)cyclopentyl)methyl)piperidin-4-yl)methyl)-3,5-bis(trifluoromethyl)benzamide]
17 | < 300 | 550 | CCS(=O)(=O)NC1(CN2CCC(CNC(=O)c3cc(C(F)(F)F)cc(C(F)(F)F)c3)CC2)CCCC1 [Compound 3, N-((1-((1-(ethylsulfonamido)cyclopentyl)methyl)piperidin-4-yl)methyl)-3,5-bis(trifluoromethyl)benzamide]
18 | 1890 | 3800 | CCNC(=O)NC1(CN2CCC(CNC(=O)c3cc(C(F)(F)F)cc(C(F)(F)F)c3)CC2)CCCC1 [Compound 11, N-((1-((1-(3-ethylureido)cyclopentyl)methyl)piperidin-4-yl)methyl)-3,5-bis(trifluoromethyl)benzamide]
19 | 480 | 1660 | CC(C)(C)NC(=O)NC1(CN2CCC(CNC(=O)c3cc(C(F)(F)F)cc(C(F)(F)F)c3)CC2)CCCC1 [Compound 12, N-((1-((1-(3-tert-butylureido)cyclopentyl)methyl)piperidin-4-yl)methyl)-3,5-bis(trifluoromethyl)benzamide]
20 | 630 | 1870 | CCCNC(=O)NC1(CN2CCC(CNC(=O)c3cc(C(F)(F)F)cc(C(F)(F)F)c3)CC2)CCCC1 [Compound 13, N-((1-((1-(3-propylureido)cyclopentyl)methyl)piperidin-4-yl)methyl)-3,5-bis(trifluoromethyl)benzamide]
21 | < 300 | 1170 | O=C(NC1CCCCC1)NC1(CN2CCC(CNC(=O)c3cc(C(F)(F)F)cc(C(F)(F)F)c3)CC2)CCCC1 [Compound 14, N-((1-((1-(3-cyclohexylureido)cyclopentyl)methyl)piperidin-4-yl)methyl)-3,5-bis(trifluoromethyl)benzamide]
22 | 1030 | 3040 | CC(C)NC(=O)NC1(CN2CCC(CNC(=O)c3cc(C(F)(F)F)cc(C(F)(F)F)c3)CC2)CCCC1 [Compound 15, N-((1-((1-(3-isopropylureido)cyclopentyl)methyl)piperidin-4-yl)methyl)-3,5-bis(trifluoromethyl)benzamide]
23 | < 300 | 190 | COC(=O)NC1(CN2CCC(CNC(=O)c3cc(C(F)(F)F)cc(C(F)(F)F)c3)CC2)CCCC1 [Compound 16, methyl 1-((4-((3,5-bis(trifluoromethyl)benzamido)methyl)piperidin-1-yl)methyl)cyclopentyl-carbamate]
24 | < 300 | 120 | CCOC(=O)NC1(CN2CCC(CNC(=O)c3cc(C(F)(F)F)cc(C(F)(F)F)c3)CC2)CCCC1 [Compound 17, ethyl 1-((4-((3,5-bis(trifluoromethyl)benzamido)methyl)piperidin-1-yl)methyl)cyclopentylcarbamate]
25 | < 300 | 80 | CC(C)COC(=O)NC1(CN2CCC(CNC(=O)c3cc(C(F)(F)F)cc(C(F)(F)F)c3)CC2)CCCC1 [Compound 18, isobutyl 1-((4-((3,5-bis(trifluoromethyl)benzamido)methyl)piperidin-1-yl)methyl)cyclopentyl-carbamate]
26 | 410 | 160 | CC(C)(C)OC(=O)NCCN1CCC(CNC(=O)c2cc(C(F)(F)F)cc(C(F)(F)F)c2)CC1 [Compound 35, tert-butyl 2-(4-((3,5-bis(trifluoromethyl)benzamido)methyl)piperidin-1-yl)ethylcarbamate]
27 | 4300 | 1700 | CCOC(=O)NCCN1CCC(CNC(=O)c2cc(C(F)(F)F)cc(C(F)(F)F)c2)CC1 [Compound 36, ethyl 2-(4-((3,5-bis(trifluoromethyl)benzamido)methyl)piperidin-1-yl)ethylcarbamate]
